Measurements: ChEMBL document CHEMBL6177980 (J Med Chem, 2025)
Values after ≈ are worked out from the molar mass of the structure shown. Active and inactive are the calls of the source. The calls are words filed in the database; no cut-off is given here.

What was measured:
[1] = Prodrug conversion in Sprague-Dawley rat assessed as half life of 4'-Fluorouridine metabolite treated orally or intravenously by LC-MS/MS analysis; assay type: ADME; settings: in vivo, po
[2] = Prodrug conversion in C57BL/6J mouse assessed as AUC (0 to t) of 4'-Fluorouridine metabolite at 6 mg/kg, po by LC-MS/MS analysis; assay type: ADME, organism-based; settings: in vivo
[3] = Prodrug conversion in Sprague-Dawley rat assessed as AUC (0 to t) of 4'-Fluorouridine metabolite at 20 mg/kg, po by LC-MS/MS analysis; assay type: ADME, organism-based; settings: in vivo
[4] = Prodrug conversion in Beagle dog assessed as AUC (0 to t) of 4'-Fluorouridine metabolite at 1 mg/kg, po by LC-MS/MS analysis; assay type: ADME, organism-based, Canis lupus familiaris; settings: in vivo
[5] = Prodrug conversion in Sprague-Dawley rat assessed as 4'-Fluorouridine metabolite formation in stomach at 6 mg/kg, po measured for 0.5 to 24 hrs by LC-MS/MS analysis; assay type: ADME, organism-based; settings: in vivo, time 0.5-24 hrs
[6] = system: Mammarenavirus choriomeningitidis; experiment: In vivo antiviral activity against LCMV infected in C57BL/6-Prf1tm1Sdz/J mouse assessed as void of inflammatory cell inflammation in spleen at 1 to 5 mg/kg, po qd for 7 days; assay type: functional, organism-based; settings: dose 1-5 mg/kg, time 7.0 day
[7] = Prodrug conversion in Beagle dog assessed as Cmax of 4'-Fluorouridine metabolite at 10 mg/kg, po by LC-MS/MS analysis; assay type: ADME, organism-based, Canis lupus familiaris; settings: in vivo
[8] = Prodrug conversion in Beagle dog assessed as Cmax of 4'-Fluorouridine metabolite at 3 mg/kg, po by LC-MS/MS analysis; assay type: ADME, organism-based, Canis lupus familiaris; settings: in vivo
[9] = Aqueous solubility of compound; assay type: physicochemical; settings: aqueous medium
[10] = Stability in C57BL/6J mouse plasma administered orally or intravenously; assay type: ADME, cell-free; settings: po
[11] = Prodrug conversion in Beagle dog assessed as volume of distribution at steady state of 4'-Fluorouridine metabolite treated orally or intravenously by LC-MS/MS analysis; assay type: ADME, Canis lupus familiaris; settings: in vivo, po
[12] = Prodrug conversion in Sprague-Dawley rat assessed as Cmax of 4'-Fluorouridine metabolite at 6 mg/kg, po by LC-MS/MS analysis; assay type: ADME, organism-based; settings: in vivo
[13] = Prodrug conversion in Sprague-Dawley rat assessed as 4'-Fluorouridine metabolite formation in kidney at 6 mg/kg, po measured for 0.5 to 24 hrs by LC-MS/MS analysis; assay type: ADME, organism-based; settings: in vivo, time 0.5-24 hrs
[14] = Prodrug conversion in Sprague-Dawley rat assessed as AUC (0 to t) of 4'-Fluorouridine metabolite at 2 mg/kg, iv by LC-MS/MS analysis; assay type: ADME, organism-based; settings: in vivo
[15] = Prodrug conversion in C57BL/6J mouse assessed as Cmax of 4'-Fluorouridine metabolite at 6 mg/kg, po by LC-MS/MS analysis; assay type: ADME, organism-based; settings: in vivo
[16] = Cmax in fasted Cynomolgus monkey at 11.6 mg/kg, po by LC-MS/MS analysis; assay type: ADME, organism-based, Macaca fascicularis; settings: in vivo
[17] = Prodrug conversion in Sprague-Dawley rat assessed as Cmax of 4'-Fluorouridine metabolite at 6 mg/kg/day, po treated for 7 days by LC-MS/MS analysis; assay type: ADME, organism-based; settings: in vivo, 168 h, time 7 day
[18] = Prodrug conversion in Sprague-Dawley rat assessed as 4'-Fluorouridine metabolite formation in brain at 6 mg/kg, po measured for 0.5 to 24 hrs by LC-MS/MS analysis; assay type: ADME, organism-based; settings: in vivo, time 0.5-24 hrs
[19] = Stability of compound at pH 6.8 assessed as change in purity at 1 mg/ml incubated for 4 hrs by HPLC analysis; assay type: physicochemical; settings: buffer, pH 6.8, 4 h
[20] = system: Mammarenavirus choriomeningitidis; experiment: Antiviral activity against LCMV infected in C57BL/6-Prf1tm1Sdz/J mouse assessed as reduction in viral titer in spleen treated orally once daily for 7 days by RT-qPCR analysis; assay type: functional, organism-based; settings: dose 1-5 mg/kg, route po, time 7.0 day
[21] = system: Mammarenavirus choriomeningitidis; experiment: In vivo antiviral activity against LCMV infected in C57BL/6-Prf1tm1Sdz/J mouse assessed as improvement in splenic tissue lesion at 1 to 5 mg/kg, po qd for 7 days; assay type: functional, organism-based; settings: dose 1-5 mg/kg, time 7.0 day
[22] = Prodrug conversion in Sprague-Dawley rat plasma assessed as parent nucleoside metabolite formation administered orally or intravenously; assay type: ADME, cell-free; settings: po
[23] = Prodrug conversion in Beagle dog assessed as Cmax of 4'-Fluorouridine metabolite at 1 mg/kg, po by LC-MS/MS analysis; assay type: ADME, organism-based, Canis lupus familiaris; settings: in vivo
[24] = Prodrug conversion in Sprague-Dawley rat assessed as volume of distribution at steady state of 4'-Fluorouridine metabolite treated orally or intravenously by LC-MS/MS analysis; assay type: ADME; settings: in vivo, po
[25] = Prodrug conversion in Sprague-Dawley rat assessed as AUC (0 to t) of 4'-Fluorouridine metabolite at 6 mg/kg, po by LC-MS/MS analysis; assay type: ADME, organism-based; settings: in vivo
[26] = system: Mammarenavirus choriomeningitidis; experiment: In vivo antiviral activity against LCMV infected in C57BL/6-Prf1tm1Sdz/J mouse assessed as improvement in lymphocytes percentage at 1 to 5 mg/kg, po qd treated for 7 days; assay type: functional, organism-based; settings: dose 1-5 mg/kg, time 7.0 day
[27] = system: Mammarenavirus choriomeningitidis; experiment: Antiviral activity against LCMV infected in C57BL/6-Prf1tm1Sdz/J mouse assessed as reduction in viral titer in liver treated orally once daily for 7 days by RT-qPCR analysis; assay type: functional, organism-based; settings: dose 1-5 mg/kg, route po, time 7.0 day
[28] = Prodrug conversion in Beagle dog liver microsomes assessed as parent nucleoside metabolite formation at 1 uM measured up to 60 mins in presence of BNPP/NADPH/UDPGA by LC-MS/MS analysis; assay type: ADME, Canis lupus familiaris, Microsome; settings: 1 h
[29] = Prodrug conversion in C57BL/6J mouse liver microsomes assessed as parent nucleoside metabolite formation at 1 uM measured up to 60 mins in presence of NADPH/UDPGA by LC-MS/MS analysis; assay type: ADME, Microsome; settings: 1 h
[30] = Prodrug conversion in C57BL/6J mouse plasma assessed as parent nucleoside metabolite formation administered orally or intravenously; assay type: ADME, cell-free; settings: po
[31] = system: Mammarenavirus choriomeningitidis; experiment: In vivo antiviral activity against LCMV infected in C57BL/6-Prf1tm1Sdz/J mouse assessed as animal survival rate at 1 to 5 mg/kg, po qd treated for 7 days relative to control; assay type: functional; settings: dose 1-5 mg/kg, time 7 day
[32] = Prodrug conversion in Sprague-Dawley rat assessed as 4'-Fluorouridine-NTP metabolite formation in thymus at 6 mg/kg, po measured for 0.5 to 24 hrs by LC-MS/MS analysis; assay type: ADME, organism-based; settings: in vivo, time 0.5-24 hrs
[33] = Stability in Beagle dog plasma administered orally or intravenously; assay type: ADME, cell-free, Canis lupus familiaris; settings: po
[34] = Stability of compound at pH 4.0 assessed as change in purity at 1 mg/ml incubated for 12 hrs by HPLC analysis; assay type: physicochemical; settings: buffer, pH 4, 12 h
HepG2 = experiment: Mitochondrial toxicity in human HepG2 cells cultured in glucose containing medium at 100 uM; assay type: cell-based; settings: hepg2, 100 µM
[35] = system: Mammarenavirus choriomeningitidis; experiment: In vivo antiviral activity against LCMV infected in C57BL/6-Prf1tm1Sdz/J mouse assessed as appearance of clear boundary between red and white pulp in spleen at 1 to 5 mg/kg, po qd for 7 days; assay type: functional, organism-based; settings: dose 1-5 mg/kg, time 7.0 day
[36] = Oral bioavailability in fasted Cynomolgus monkey administered orally by LC-MS/MS analysis; assay type: ADME, organism-based, Macaca fascicularis; settings: in vivo
[37] = Prodrug conversion in Sprague-Dawley rat plasma assessed as parent nucleoside metabolite formation at 1 uM measured up to 60 mins by LC-MS/MS analysis; assay type: ADME, cell-free; settings: 1 h

CC(C)C(=O)OC[C@@]1(F)O[C@@H](n2ccc(=O)n(COC(=O)c3cccnc3)c2=O)[C@H](OC(=O)C(C)C)[C@@H]1OC(=O)C(C)C
t1/2 [1]: 15 h | AUCt [2]: 1729 ng·h/mL | AUCt [3]: 11325 ng·h/mL | AUCt [4]: 257 ng·h/mL | Drug metabolism [5]: metabolite_detected | Activity [6]: Active | Cmax [7]: 1501 ng/mL | Cmax [8]: 495 ng/mL | solubility [9]: 10 µg/mL (≈ 16.5 µM) | Stability [10]: Unstable | Vdss [11]: 3.07 L/kg | Cmax [12]: 329 ng/mL | Drug metabolism [13]: metabolite_detected | AUCt [14]: 1056 ng·h/mL | Cmax [15]: 266 ng/mL | Cmax [16]: 2390 ng/mL | Cmax [17]: 383 ng/mL | Drug metabolism [18]: metabolite_detected | Activity [19]: -0.1% | Activity [20]: Dose-dependent-effect | Activity [21]: Active | Drug metabolism [22]: metabolite_detected | Cmax [23]: 139 ng/mL | Vdss [24]: 24.3 L/kg | AUCt [25]: 3023 ng·h/mL | Activity [26]: Active | Activity [27]: Dose-dependent-effect | Drug metabolism [28]: metabolite_notdetected | Drug metabolism [29]: metabolite_detected | Drug metabolism [30]: metabolite_detected | Survival [31]: 100% | Drug metabolism [32]: metabolite_detected | Stability [33]: Unstable | Activity [34]: 0% | Activity (HepG2): Non-toxic | Activity [35]: Active | bioavailability [36]: 75.2% | Drug metabolism [37]: metabolite_detected
